A short description of data set [1]: Determination of the affinity constant for gallium by potentiometric measurements. As to conditions: ionic strength 0.1 M KCl, temperature 25° C., in water. It counts as physicochemical. The text has this: Determination of the affinity constant of 4-[3,5-bis(2-hydroxyphenyl)-[1,2,4]triazol-1-yl]benzoic acid for gallium
(§1) Chem. 2004, pp 4177-4192. Considering the affinity constants of 4-[3,5-bis(2-hydroxyphenyl)-[1,2,4]triazol-1-yl]benzoic acid for other metal ions according to Steinhauser et al., Eur. J. Inorg.

Data set [2] is described as follows: Ranking of affinity constants for metal ions. It counts as physicochemical. As to conditions: other metal ion constants according to Steinhauser et al., Eur. J. Inorg. Chem. 2004.
Source text: as §1

In the case of `O=C(O)c1ccc(-n2nc(-c3ccccc3O)nc2-c2ccccc2O)cc1` [4-[3,5-bis(2-hydroxyphenyl)-[1,2,4]triazol-1-yl]benzoic acid], the “affinity constant for Gallium, log β120” value in data set [1] is listed as 33.8(1). The “ranking according to affinity constants for metal ions” value in data set [2] is on record as “Fe(III) (highest affinity)>Ga(III)>Al(III)>>Cu(II)>>Zn(II)>>Mg(II)>Ca(II)”.

Values taken from patent US7947673B2, “Method of scintigraphy” (Novartis AG, priority 2005, dated 2011).
